Measurements published in patent US10189841B2, “Purinones as ubiquitin-specific protease 1 inhibitors” (Forma Therapeutics, Inc., priority 2015, dated 2019).

Target: USP1 (construct USP1 (I-785, GG670, 671AA)/UAF1 (I-677)-Flag) (Homo sapiens (Human), UniProt O94782, G670A/G671A)
Assay: Ubiquitin-Rhodamine 110 assay for USP1 activity
Format: biochemical
Settings: USP1/UAF1 25 pM, Ub-Rh110 25 nM, 30 min preincubation
Method in brief: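 Ub-Rh110 (25 nM, ≪Km) cleavage read at ex 485/em 535 in Tris pH 8.0, CaCl2, GSH, Prionex, Triton X-100. The screen used 10 µM compound, 100 pM USP1/UAF1 and 45 min at RT.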

USP1 (construct USP1 (I-785, GG670, 671AA)/UAF1 (I-677)-Flag), sequence (O94782 whole entry G670A/G671A): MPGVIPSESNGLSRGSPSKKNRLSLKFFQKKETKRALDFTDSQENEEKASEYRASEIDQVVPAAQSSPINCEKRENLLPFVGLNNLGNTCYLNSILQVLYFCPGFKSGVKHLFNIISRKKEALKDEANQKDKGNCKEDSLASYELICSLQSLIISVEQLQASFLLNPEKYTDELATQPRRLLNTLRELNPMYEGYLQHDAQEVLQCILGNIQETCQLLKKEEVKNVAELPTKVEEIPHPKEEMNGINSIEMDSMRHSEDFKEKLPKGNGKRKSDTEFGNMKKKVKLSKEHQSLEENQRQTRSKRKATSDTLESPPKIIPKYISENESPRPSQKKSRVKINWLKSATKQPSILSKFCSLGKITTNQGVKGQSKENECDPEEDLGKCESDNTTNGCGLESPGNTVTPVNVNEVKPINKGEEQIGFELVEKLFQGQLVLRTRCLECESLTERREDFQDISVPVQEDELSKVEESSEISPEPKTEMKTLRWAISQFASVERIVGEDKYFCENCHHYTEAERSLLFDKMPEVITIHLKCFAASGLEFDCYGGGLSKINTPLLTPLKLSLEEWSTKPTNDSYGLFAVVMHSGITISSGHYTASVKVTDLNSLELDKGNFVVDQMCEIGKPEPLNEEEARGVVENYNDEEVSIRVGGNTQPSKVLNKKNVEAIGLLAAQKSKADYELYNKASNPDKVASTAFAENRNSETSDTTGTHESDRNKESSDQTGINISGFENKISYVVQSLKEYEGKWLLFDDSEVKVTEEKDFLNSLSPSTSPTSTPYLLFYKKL
USP1 (construct USP1 (I-785, GG670, 671AA)/UAF1 (I-677)-Flag), sequence (Q8TAF3 whole entry partner): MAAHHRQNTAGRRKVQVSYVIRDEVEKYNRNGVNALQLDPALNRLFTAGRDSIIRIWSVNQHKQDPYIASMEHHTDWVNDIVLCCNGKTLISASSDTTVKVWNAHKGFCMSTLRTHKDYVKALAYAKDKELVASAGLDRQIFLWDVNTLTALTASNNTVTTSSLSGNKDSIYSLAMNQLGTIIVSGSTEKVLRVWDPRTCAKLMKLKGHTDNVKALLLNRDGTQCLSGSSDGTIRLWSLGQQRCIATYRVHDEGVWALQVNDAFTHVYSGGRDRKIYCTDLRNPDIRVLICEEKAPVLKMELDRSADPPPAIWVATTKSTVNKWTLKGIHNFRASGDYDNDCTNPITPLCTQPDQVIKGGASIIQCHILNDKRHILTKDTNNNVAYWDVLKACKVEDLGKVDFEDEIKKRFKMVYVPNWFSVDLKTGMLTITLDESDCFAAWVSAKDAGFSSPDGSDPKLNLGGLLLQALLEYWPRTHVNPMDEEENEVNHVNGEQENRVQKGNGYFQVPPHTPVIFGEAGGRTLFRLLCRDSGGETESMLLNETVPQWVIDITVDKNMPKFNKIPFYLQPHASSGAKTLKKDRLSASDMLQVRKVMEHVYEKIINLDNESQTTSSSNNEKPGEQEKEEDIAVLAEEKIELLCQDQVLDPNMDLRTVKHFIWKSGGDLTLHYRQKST

SMILES	IC50
CC(C)c1ccccc1-c1ncc2[nH]c(=O)n([C@@H](C)c3ccc(-n4nccn4)cc3)c2n1 [Compound I-141, (S)-9-(1-(4-(2H-1,2,3-triazol-2-yl)phenyl)ethyl)-2-(2-isopropylphenyl)-7,9-dihydro-8H-purin-8-one]	200 to 2000 nM
CC(C)c1ccccc1-c1ncc2[nH]c(=O)n([C@H](C)c3ccc(-n4nccn4)cc3)c2n1 [Compound I-142, (R)-9-(1-(4-(2H-1,2,3-triazol-2-yl)phenyl)ethyl)-2-(2-isopropylphenyl)-7,9-dihydro-8H-purin-8-one]	200 to 2000 nM
CC(C)c1ccccc1-c1ncc2[nH]c(=O)n(CC3CCN(c4cccnc4)CC3)c2n1 [Compound I-143, 2-(2-isopropylphenyl)-9-((1-(pyridin-3-yl)piperidin-4-yl)methyl)-7,9-dihydro-8H-purin-8-one]	200 to 2000 nM
CC(C)c1ccccc1-c1ncc2[nH]c(=O)n(C3CCN(c4cccnc4)CC3)c2n1 [Compound I-144, 2-(2-isopropylphenyl)-9-(1-(pyridin-3-yl)piperidin-4-yl)-7,9-dihydro-8H-purin-8-one]	> 2000 nM
CC(C)c1ccccc1-c1ncc2[nH]c(=O)n(Cc3ccc(-n4cccn4)cc3)c2n1 [Compound I-145, 9-(4-(1H-pyrazol-1-yl)benzyl)-2-(2-isopropylphenyl)-7,9-dihydro-8H-purin-8-one]	< 50 nM
CC(C)c1ccccc1-c1ncc2[nH]c(=O)n(Cc3ccc(-n4cccn4)nc3)c2n1 [Compound I-146, 9-((6-(1H-pyrazol-1-yl)pyridin-3-yl)methyl)-2-(2-isopropylphenyl)-7,9-dihydro-8H-purin-8-one]	50 to 200 nM
CC(C)c1ccccc1-c1ncc2[nH]c(=O)n([C@@H](C)c3ccc(-n4ccnn4)cc3)c2n1 [Compound I-147, (S)-9-(1-(4-(1H-1,2,3-triazol-1-yl)phenyl)ethyl)-2-(2-isopropylphenyl)-7,9-dihydro-8H-purin-8-one]	50 to 200 nM
CC(C)c1ccccc1-c1ncc2[nH]c(=O)n([C@H](C)c3ccc(-n4ccnn4)cc3)c2n1 [Compound I-148, (R)-9-(1-(4-(1H-1,2,3-triazol-1-yl)phenyl)ethyl)-2-(2-isopropylphenyl)-7,9-dihydro-8H-purin-8-one]	200 to 2000 nM
CC(C)c1ccccc1-c1ncc2[nH]c(=O)n(Cc3ccc(-n4ccc(C(F)(F)F)n4)cc3)c2n1 [Compound I-149, 2-(2-isopropylphenyl)-9-(4-(3-(trifluoromethyl)-1H-pyrazol-1-yl)benzyl)-7,9-dihydro-8H-purin-8-one]	50 to 200 nM
Cc1nnc(-c2ccc(Cn3c(=O)[nH]c4cnc(-c5ccccc5C(C)C)nc43)cc2)o1 [Compound I-150, 2-(2-isopropylphenyl)-9-(4-(5-methyl-1,3,4-oxadiazol-2-yl)benzyl)-7,9-dihydro-8H-purin-8-one]	< 50 nM
CC(C)c1ccccc1-c1ncc2[nH]c(=O)n(Cc3ccc(C#N)cc3)c2n1 [Compound I-151, 4-((2-(2-isopropylphenyl)-8-oxo-7,8-dihydro-9H-purin-9-yl)methyl)benzonitrile]	200 to 2000 nM
Cc1nc(-c2ccc(Cn3c(=O)[nH]c4cnc(-c5ccccc5C(C)C)nc43)cc2)no1 [Compound I-152, 2-(2-isopropylphenyl)-9-(4-(5-methyl-1,2,4-oxadiazol-3-yl)benzyl)-7,9-dihydro-8H-purin-8-one]	< 50 nM
CC(C)c1ccccc1-c1ncc2[nH]c(=O)n(Cc3ccc(CN4CCOCC4)cc3)c2n1 [Compound I-153, 2-(2-isopropylphenyl)-9-(4-(morpholinomethyl)benzyl)-7,9-dihydro-8H-purin-8-one]	> 2000 nM
CC(C)c1ccccc1-c1ncc2[nH]c(=O)n(Cc3ccc(-n4cncn4)cc3)c2n1 [Compound I-154, 9-(4-(1H-1,2,4-triazol-1-yl)benzyl)-2-(2-isopropylphenyl)-7,9-dihydro-8H-purin-8-one]	> 2000 nM
CC(C)c1ccccc1-c1ncc2[nH]c(=O)n([C@H](C)c3ccccc3)c2n1 [Compound I-155, (R)-2-(2-isopropylphenyl)-9-(1-phenylethyl)-7,9-dihydro-8H-purin-8-one]	50 to 200 nM
